Experimental data reported in patent EP2027081B1, “THERAPEUTIC PROSTAGLANDIN COMPOUNDS FOR THE TREATMENT OF GLAUCOMA” (ALLERGAN, INC., priority 2006, dated 2007).
Where two headings read alike, the source gives them in different places.

Legend:
hTP = biological target: T1, hTP (Homo sapiens, UniProt P21731); test: FLIPR calcium signal study, HEK-293(EBNA) cells; type: cell-based; conditions: Table 1; NA means not active; read-out: FUNCTIONAL (Ca2+, EC50, nM) HTP
T1 construct: expressed in transfected cells; host or cells: HEK-293(EBNA)
T1 sequence (P21731 1-343): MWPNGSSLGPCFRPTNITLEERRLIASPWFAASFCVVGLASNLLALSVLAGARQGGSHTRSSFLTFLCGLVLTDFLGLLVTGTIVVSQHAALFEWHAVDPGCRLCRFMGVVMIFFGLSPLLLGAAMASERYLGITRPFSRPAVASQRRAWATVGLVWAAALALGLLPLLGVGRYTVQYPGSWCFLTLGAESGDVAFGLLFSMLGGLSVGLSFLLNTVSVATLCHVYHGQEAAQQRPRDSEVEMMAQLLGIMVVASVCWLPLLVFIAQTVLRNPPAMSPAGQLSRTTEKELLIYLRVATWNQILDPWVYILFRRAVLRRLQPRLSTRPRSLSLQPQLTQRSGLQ
Procedure: (§1) HEK-293(EBNA) cells, stably expressing one type or subtype of recombinant human prostaglandin receptors (prostaglandin receptors expressed: hDP/Gqs5; hEP1; hEP2/Gqs5; hEP3A/Gqi5; hEP4/Gqs5; hFP; hIP; hTP), were cultured in 100 mm culture dishes in high-glucose DMEM medium containing 10% fetal bovine serum, 2 mM I-glutamine, 250 µg/ml geneticin (G418) and 200 µg/ml hygromycin B as selection markers, and 100 units/ml penicillin G, 100 µg/ml streptomycin and 0.25 µg/ml amphotericin B.
(§2) Cells were seeded at a density of 5x10^4 cells per well in Biocoat® Poly-D-lysine-coated black-wall, clear-bottom 96-well plates (Becton-Dickinson) and allowed to attach overnight in an incubator at 37 °C. Cells were then washed two times with HBSS-HEPES buffer (Hanks Balanced Salt Solution without bicarbonate and phenol red, 20 mM HEPES, pH 7.4) using a Denley Cellwash plate washer (Labsystems). After 45 minutes of dye-loading in the dark, using the calcium-sensitive dye Fluo-4 AM at a final concentration of 2 µM, plates were washed four times with HBSS-HEPES buffer to remove excess dye leaving 100 µl in each well. Plates were re-equilibrated to 37 °C for a few minutes.
(§3) Cells were excited with an Argon laser at 488 nm, and emission was measured through a 510-570 nm bandwidth emission filter (FLIPR™, Molecular Devices, Sunnyvale, CA). Drug solution was added in a 50 µl volume to each well to give the desired final concentration. The peak increase in fluorescence intensity was recorded for each well. On each plate, four wells each served as negative (HBSS-HEPES buffer) and positive controls (standard agonists: BW245C (hDP); PGE2 (hEP1; hEP2/Gqs5; hEP3A/Gqi5; hEP4/Gqs5); PGF2α (hFP); carbacyclin (hIP); U-46619 (hTP), depending on receptor). The peak fluorescence change in each drug-containing well was then expressed relative to the controls.
(§4) Compounds were tested in a high-throughput (HTS) or concentration-response (CoRe) format. In the HTS format, forty-four compounds per plate were examined in duplicates at a concentration of 10^-5 M. To generate concentration-response curves, four compounds per plate were tested in duplicates in a concentration range between 10^-5 and 10^-11 M. The duplicate values were averaged. In either, HTS or CoRe format each compound was tested on at least 3 separate plates using cells from different passages to give an n ≥ 3.

hEP2/Gqs5 = biological target: T2, hEP2/Gqs5 (Homo sapiens, UniProt P43116); test: FLIPR calcium signal study, HEK-293(EBNA) cells; type: cell-based
T2 construct: expressed in transfected cells; host or cells: HEK-293(EBNA)
Procedure: as §2
Cells were excited with an Argon laser at 488 nm, and emission was measured through a 510-570 nm bandwidth emission filter (FLIPR™, Molecular Devices, Sunnyvale, CA). […] The peak increase in fluorescence intensity was recorded for each well. […] The peak fluorescence change in each drug-containing well was then expressed relative to the controls.
as §4, with “averaged.” for “averaged. In either, HTS or CoRe format each compound was tested on at least 3 separate plates using cells from different passages to give an n ≥ 3.”

EP4 receptors = biological target: T3, EP4 receptors (Homo sapiens, UniProt P35408); test: Radioligand binding, EP4 receptor; conditions: Table 3; read-out: BINDING (Ki, nM) HEP4
T3 construct: expressed in transfected cells; host or cells: HEK-293
Procedure: (§5) HEK-293 cells stably expressing the human or feline FP receptor, or EP1, EP2, or EP4 receptors were washed with TME buffer, scraped from the bottom of the flasks, and homogenized for 30 sec using a Brinkman PT 10/35 polytron. TME buffer was added to achieve a final 40 ml volume in the centrifuge tubes (the composition of TME is 100 mM TRIS base, 20 mM MgCl2, […]; 10N HCl is added to achieve a pH of 7.4).
(§6) The cell homogenate was centrifuged at 19000 r.p.m. for 20 min at 4° C using a Beckman Ti-60 rotor. The resultant pellet was resuspended in TME buffer to give a final 1 mg/ml protein concentration, as determined by Biorad assay. Radioligand binding competition assays vs. [^3H-]17 -phenyl PGF2α (5 nM) were performed in a 100µl volume for 60 min. Binding reactions were started by adding plasma membrane fraction. The reaction was terminated by the addition of 4 ml ice-cold TRIS-HCl buffer and rapid filtration through glass fiber GF/B filters using a Brandel cell harvester. The filters were washed 3 times with ice-cold buffer and oven dried for one hour.
(§7) [^3H-] PGE2 (specific activity 180 Ci mmol) was used as the radioligand for EP receptors. [^3H] 17-phenyl PGF2α was employed for FP receptor binding studies. Binding studies employing EP1, EP2, EP4 and FP receptors were performed in duplicate in at least three separate experiments. A 200µl assay volume was used. Incubations were for 60 min at 25°C and were terminated by the addition of 4 ml of ice-cold 50 mM TRIS-HCl, followed by rapid filtration through Whatman GF/B filters and three additional 4 ml washes in a cell harvester (Brandel). Competition studies were performed using a final concentration of 5 nM [^3H]-PGE2, or 5 nM [^3H] 17-phenyl PGF2α and non-specific binding determined with 10^-5M of unlabeled PGE2, or 17-phenyl PGF2α, according to receptor subtype studied.

human EP2 receptors = biological target: T4, human EP2 receptors (Homo sapiens, UniProt P43116); test: Competition binding, [3H]PGE2, HEK 293 cells stably expressing human EP2 receptors
T4 construct: expressed in transfected cells; host or cells: HEK 293
Procedure: Competition binding experiments were performed in a medium containing Hank's balanced salt solution, Hepes 20 mM, pH 7.3, membranes (∼60 µg protein) or 2x10^5 cells from HEK 293 cells stably expressing human EP2 receptors, [^3H]PGE2 (10 nM) and various concentrations of test compounds in a total volume of 300 µl. Reaction mixtures were incubated at 23 °C for 60 min, and were filtered over Whatman GF/B filters under vacuum. Filters were washed three times with 5 ml ice-cold buffer containing 50 mM Tris/HCl (pH 7.3). Non-specific binding was estimated in the presence of excess unlabeled PGE2 (10 µM). Binding data fitted to the binding model for a single class of binding sites, using nonlinear regression analysis.
as §5, §6, §7

hEP3A/Gqi5 = biological target: T5, hEP3A/Gqi5 (Homo sapiens, UniProt P43115); test: FLIPR calcium signal study, HEK-293(EBNA) cells; type: cell-based
T5 construct: expressed in transfected cells; host or cells: HEK-293(EBNA)
T5 sequence (P43115 1-390): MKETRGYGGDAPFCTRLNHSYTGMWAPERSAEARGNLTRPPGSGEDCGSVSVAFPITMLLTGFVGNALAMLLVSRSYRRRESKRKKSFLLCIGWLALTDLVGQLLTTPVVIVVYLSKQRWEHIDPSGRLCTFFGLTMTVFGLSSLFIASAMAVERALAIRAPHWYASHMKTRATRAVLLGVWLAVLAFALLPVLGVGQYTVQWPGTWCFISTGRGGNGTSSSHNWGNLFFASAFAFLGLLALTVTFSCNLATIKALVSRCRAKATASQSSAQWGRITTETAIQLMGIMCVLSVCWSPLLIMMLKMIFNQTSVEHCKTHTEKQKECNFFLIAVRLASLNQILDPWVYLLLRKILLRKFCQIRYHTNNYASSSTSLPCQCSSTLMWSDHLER
Procedure: as §1, §2, §3, §4

[1] = Table 1, Ca2+ signal, NA means not active, read-out: FUNCTIONAL (Ca2+, EC50, nM) HEP 2
[2] = Table 2, unit inferred, read-out: FUNCTIONAL HEP2
[3] = Table 2, unit inferred, read-out: BINDING HEP2

T4 sequence (P43116 whole entry): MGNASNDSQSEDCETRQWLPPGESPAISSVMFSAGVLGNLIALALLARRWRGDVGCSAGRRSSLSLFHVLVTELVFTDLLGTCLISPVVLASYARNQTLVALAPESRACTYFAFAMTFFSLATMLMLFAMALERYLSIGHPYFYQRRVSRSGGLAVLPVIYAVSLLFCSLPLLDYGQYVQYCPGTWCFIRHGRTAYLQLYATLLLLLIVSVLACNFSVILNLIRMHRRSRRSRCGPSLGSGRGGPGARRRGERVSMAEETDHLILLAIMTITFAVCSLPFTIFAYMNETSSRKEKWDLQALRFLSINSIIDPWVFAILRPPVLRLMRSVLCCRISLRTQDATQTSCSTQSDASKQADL
T2 sequence (P43116 whole entry): as above
T3 sequence (P35408 whole entry): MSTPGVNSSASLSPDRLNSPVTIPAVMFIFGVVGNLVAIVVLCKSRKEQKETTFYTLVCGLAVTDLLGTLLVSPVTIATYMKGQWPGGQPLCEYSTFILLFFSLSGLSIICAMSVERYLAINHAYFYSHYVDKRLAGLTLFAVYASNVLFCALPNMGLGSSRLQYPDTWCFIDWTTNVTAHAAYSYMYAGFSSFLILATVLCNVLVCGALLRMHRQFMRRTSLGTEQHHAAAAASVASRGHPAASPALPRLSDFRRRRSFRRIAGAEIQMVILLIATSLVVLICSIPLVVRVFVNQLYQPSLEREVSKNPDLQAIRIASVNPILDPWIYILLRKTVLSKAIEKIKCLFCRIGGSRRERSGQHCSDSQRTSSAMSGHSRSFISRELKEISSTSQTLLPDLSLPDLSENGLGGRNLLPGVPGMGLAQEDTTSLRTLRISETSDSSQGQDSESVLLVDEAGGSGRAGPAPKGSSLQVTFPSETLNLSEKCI

Question: For `CCCC1(C(O)c2cccc([C@H]3CCC(=O)[C@@H]3C/C=C\CCCC(=O)OC)c2)CCC1` (stereo partly drawn) [Entry 1], which EC50 (hTP) is on record?
Answer: Its EC50 is over 10000 nM.

Question: Which EC50 (hEP2/Gqs5; [1]) does the source give for `O=C(O)CCC/C=C\C[C@H]1[C@H](Cl)CC[C@@H]1c1ccc(C(O)C2CCCCC2)cc1` (stereo partly drawn) [Entry 19] here?
Answer: Its EC50 is 2100 nM.

Question: Which results are given for `CCCCCC(O)c1ccc([C@H]2CCC(=O)[C@@H]2CCCCCCC(=O)OC)cc1` (stereo partly drawn)?
Answer: Ki (EP4 receptors): 15000 nM; EC50 (hEP2/Gqs5; Table 3, read-out: FUNCTIONAL (Ca2+, EC50, nM) HEP2): 2160 nM; Ki (human EP2 receptors; Table 3, read-out: BINDING (Ki, nM) HEP2): 4680 nM; EC50 (hEP3A/Gqi5; Table 3, read-out: FUNCTIONAL (Ca2+, EC50, nM) HEP3A): 3090 nM

Question: For `O=C(O)CCCCCC[C@H]1C(=O)CC[C@@H]1c1ccc(C2(O)CCC2)cc1` [Entry 17], which EC50 (hEP2/Gqs5; [1]) is on record?
Answer: The EC50 was over 10000 nM.

Question: With `CC(C)(C)c1ccc([C@H]2CCC(=O)[C@@H]2C/C=C\CCCC(=O)O)cc1` [Entry 8] as the compound, how does the EC50 (hEP2/Gqs5; [1]) read?
Answer: The EC50 was 1050 nM.

Question: Which EC50 (hEP2/Gqs5; [1]) does the source give for `CCCC1(C(O)c2cccc([C@H]3CCC(=O)[C@@H]3C/C=C\CCCC(=O)O)c2)CCC1` (stereo partly drawn) [Entry 2] here?
Answer: The EC50 was 2660 nM.

Question: With `O=C(O)CCCCCC[C@H]1[C@H](Cl)CC[C@@H]1c1ccc(C(O)C2CCCCC2)cc1` (stereo partly drawn) [Entry 21] as the compound, how does the EC50 (hEP2/Gqs5; [1]) read?
Answer: Its EC50 is over 10000 nM.

Question: What about the EC50 (hTP) of the same compound?
Answer: Its EC50 is over 10000 nM.

Question: With `CCCCCC(O)c1ccc([C@H]2CCC=C2CCCCCCC(=O)O)cc1` (stereo partly drawn) as the compound, how does the EC50 (hEP2/Gqs5; [2]) read?
Answer: The EC50 was 4880 nM.

Question: And the Ki (human EP2 receptors; [3])?
Answer: Its Ki is 2810 nM.

Question: `COC(=O)CCC/C=C\C[C@H]1C(=O)CC[C@@H]1c1ccc(C(O)C2CCCCC2)cc1` (stereo partly drawn) [Entry 10] was tested. Which EC50 (hEP2/Gqs5; [1]) did it give?
Answer: The EC50 was over 10000 nM.

Question: `CCCCC(O)Cc1ccc([C@H]2CCC(=O)[C@@H]2CCCCCCC(=O)OC)cc1` (stereo partly drawn) was tested. Which EC50 (hEP2/Gqs5; [2]) did it give?
Answer: The EC50 was 15000 nM.

Question: And the Ki (human EP2 receptors; [3])?
Answer: Its Ki is 4600 nM.

Question: `CCCCC(O)Cc1ccc([C@H]2CCC(=O)[C@@H]2CCCCCCC(=O)O)cc1` (stereo partly drawn) was tested. Which EC50 (hEP2/Gqs5; [2]) did it give?
Answer: The EC50 was 343 nM.

Question: What about the Ki (human EP2 receptors; [3]) of the same compound?
Answer: Its Ki is 700 nM.

Question: `CCCCCC(O)c1ccc([C@H]2CCC(=O)[C@@H]2C/C=C\CCCC(=O)O)cc1` (stereo partly drawn) [drawing 97] was tested. Which EC50 (hEP2/Gqs5; [2]) did it give?
Answer: Its EC50 is 1010 nM.

Question: What about the Ki (human EP2 receptors; [3]) of the same compound?
Answer: Its Ki is 700 nM.

Question: What does the source list for `CCCC1(C(O)c2cccc([C@H]3CCC(=O)[C@@H]3CCCCCCC(=O)O)c2)CCC1` (stereo partly drawn) [Entry 4]?
Answer: EC50 (hEP2/Gqs5; [1]): 3410 nM; EC50 (hEP3A/Gqi5; Table 1, NA means not active, read-out: FUNCTIONAL (Ca2+, EC50, nM) HEP 3A): 3830 nM

Question: Which EC50 (hEP2/Gqs5; [1]) does the source give for `COC(=O)CCCCCC[C@H]1C(=O)CC[C@@H]1c1ccc(C(O)C2CCCCC2)cc1` (stereo partly drawn) [Entry 12] here?
Answer: The EC50 was over 10000 nM.

Question: What about the EC50 (hTP) of the same compound?
Answer: The EC50 was over 10000 nM.
